The text below walks through data of the supplement of paper PMC10702517.

± gives the standard deviation.

Data set [1] in a line: chemical recovery from spiked human plasma; higher = better extraction. To be noted: pooled human plasma.
Data set [2] can be described thus: chemical recovery into PDMS from spiked human plasma; higher = better extraction. To be noted: pooled human plasma, extraction method: PES with PDMS.
Data set [3] can be described thus: chemical recovery by SPE of plasma after PDMS sampling; higher = better extraction. To be noted: pooled human plasma, extraction method: HLB SPE of plasma after PES.
The mark [4] stands for this setting: extraction method: SPE only (HLB 96-well).
Where [5] appears, read: extraction method: SPE only (HLB 96-well), PES comparison experiment.
Where [6] appears, read: extraction method: solvent precipitation (ACN + hexane).
The mark [7] stands for this setting: extraction method: PES+SPE (3 d PDMS equilibration then HLB SPE).
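Throughout, for chemical recovery by SPE of plasma after PDMS sampling: over 400 spiked chemicals quantified by LC-HRMS or GC-HRMS via internal standard calibration, recovery relative to spike mix added to unspiked plasma extract to correct matrix effects.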

For `CCCCCCCCn1sccc1=O` [2-Octyl-4-isothiazolin-3-one], the chemical recovery came to 29.4 ± 2.2% in data set [1] (setting [4]), 21.6 ± 2.9% in data set [1] (setting [5]) and 40.8 ± 4.6% in data set [1] (setting [6]). The “chemical recovery into PDMS” value in data set [2] (equilibration time (d): 1) is 33.3 ± 1.9%; in data set [2] (equilibration time (d): 3), 35.5 ± 1.5%; in data set [2] (equilibration time (d): 6) it was 36.3 ± 1.2%. The “chemical recovery by SPE of plasma” value was found to be 1.24 ± 0.64% in data set [3] (equilibration time (d): 1), 1.03 ± 0.27% in data set [3] (equilibration time (d): 3) and 0.459 ± 0.03% in data set [3] (equilibration time (d): 6).
Regarding `Nc1ccc(-c2ccc(N)c(Cl)c2)cc1Cl` [3,3'-Dichlorobenzidine], the chemical recovery in data set [1] (setting [7]) is 39.1 ± 7.4%; in data set [1] (setting [4]) it was 54.8 ± 17%; in data set [1] (setting [5]) it was 24.4 ± 3.6%; in data set [1] (setting [6]) it was 72 ± 6.2%. Also, the “chemical recovery into PDMS” value in data set [2] (equilibration time (d): 1) is 3.87 ± 0.23%; in data set [2] (equilibration time (d): 3) it was 3.04 ± 0.4%; in data set [2] (equilibration time (d): 6), 3.28 ± 0.46%. For the same compound, the results for the “chemical recovery by SPE of plasma” value in data set [3] (equilibration time (d): 1), in data set [3] (equilibration time (d): 3) and in data set [3] (equilibration time (d): 6) were 16.1 ± 5.5%, 17.3 ± 2% and 14.6 ± 2.8%, respectively.
For the compound `NC(=O)Nc1ccc(Cl)c(Cl)c1` [3,4-Dichlorophenylurea], the chemical recovery in data set [1] (setting [7]) is 56.4 ± 2.7%; in data set [1] (setting [4]), 43.9 ± 3.2%; in data set [1] (setting [5]) it was 49.3 ± 6.2%; in data set [1] (setting [6]), 71.8 ± 3.8%. In addition, the “chemical recovery into PDMS” value was found to be 0.856 ± 1.5% in data set [2] (equilibration time (d): 1), 4.96 ± 0.6% in data set [2] (equilibration time (d): 3) and 5.93 ± 0.81% in data set [2] (equilibration time (d): 6). The “chemical recovery by SPE of plasma” value in data set [3] (equilibration time (d): 1) came out at 40.1 ± 4.3%; in data set [3] (equilibration time (d): 3) it was 40.9 ± 3%; in data set [3] (equilibration time (d): 6) it was 36.5 ± 1.1%.
In the case of `Cc1cc(Cc2ccc(N)c(C)c2)ccc1N` [4,4'-Methylene-bis(2-methyl aniline)], the chemical recovery worked out at 1.31 ± 0.94% in data set [1] (setting [7]), 30.3 ± 9.8% in data set [1] (setting [4]), 24.5 ± 4% in data set [1] (setting [5]) and 65 ± 9.2% in data set [1] (setting [6]). The “chemical recovery into PDMS” value in data set [2] (equilibration time (d): 1) worked out at 0.0153 ± 0.026%; in data set [2] (equilibration time (d): 3) it was 0.00421 ± 0.0073%; in data set [2] (equilibration time (d): 6), 0.0106 ± 0.018%. For the same compound, the “chemical recovery by SPE of plasma” value is 4.29 ± 0.41% in data set [3] (equilibration time (d): 1), 4.74 ± 0.39% in data set [3] (equilibration time (d): 3) and 2.61 ± 0.21% in data set [3] (equilibration time (d): 6).
In data set [1] (setting [5]), `ClC(Cl)=C(c1ccc(Cl)cc1)c1ccc(Cl)cc1` [4,4-DDE] had a chemical recovery of 13 ± 3%. The “chemical recovery into PDMS” value in data set [2] (equilibration time (d): 1) turned out to be 83.8 ± 12%; in data set [2] (equilibration time (d): 3) it was 87.9 ± 3.9%; in data set [2] (equilibration time (d): 6), 93 ± 13%. The results for the “chemical recovery by SPE of plasma” value in data set [3] (equilibration time (d): 1) and in data set [3] (equilibration time (d): 3) were 0.964 ± 1% and 0.268 ± 0.47%, respectively.
Consider `ClC=C(c1ccc(Cl)cc1)c1ccc(Cl)cc1` [4,4-DDMU], for which the entries for the “chemical recovery into PDMS” value in data set [2] (equilibration time (d): 3) and in data set [2] (equilibration time (d): 6) were 67.8 ± 4.7% and 62.3 ± 4.6%, respectively. Besides, the “chemical recovery by SPE of plasma” value in data set [3] (equilibration time (d): 1) is 11.4 ± 8%; in data set [3] (equilibration time (d): 3), 12 ± 2.1%; in data set [3] (equilibration time (d): 6), 11.5 ± 4.2%.
For the compound `NC(=O)c1ccc(N)cc1` [4-Aminobenzamide], the values for the chemical recovery in data set [1] (setting [7]), in data set [1] (setting [4]) and in data set [1] (setting [6]) were 3.92 ± 0.79%, 3.28 ± 2.1% and 98.6 ± 21%, respectively. For the same compound, the “chemical recovery into PDMS” value in data set [2] (equilibration time (d): 1) worked out at 0.339 ± 0.59%; in data set [2] (equilibration time (d): 3), 0.844 ± 0.17%; in data set [2] (equilibration time (d): 6), 0.572 ± 0.1%. The “chemical recovery by SPE of plasma” value in data set [3] (equilibration time (d): 3) worked out at 5.92 ± 1.7%; in data set [3] (equilibration time (d): 6), 10 ± 3.9%.
In data set [1] (setting [5]), `C[C@]12CCC(=O)C=C1CC[C@@H]1[C@@H]2CC[C@]2(C)C(=O)CC[C@@H]12` [4-Androstene-3,17-dione] had a chemical recovery of 49.8 ± 8.7%. Also, the figures for the “chemical recovery into PDMS” value in data set [2] (equilibration time (d): 1), in data set [2] (equilibration time (d): 3) and in data set [2] (equilibration time (d): 6) were 39.8 ± 3%, 43.4 ± 1.7% and 42.6 ± 3.7%, respectively. For the same compound, the “chemical recovery by SPE of plasma” value in data set [3] (equilibration time (d): 1) came to 1.37 ± 2.1%; in data set [3] (equilibration time (d): 3) it was 4.32 ± 1.8%; in data set [3] (equilibration time (d): 6), 1.36 ± 1.8%.
In the case of `Nc1ccc(Cl)cc1` [4-Chloroaniline], the chemical recovery in data set [1] (setting [4]) came to 16.4 ± 6.2%. The “chemical recovery into PDMS” value in data set [2] (equilibration time (d): 1) worked out at 6.69 ± 4.3%; in data set [2] (equilibration time (d): 3), 5.92 ± 5.1%; in data set [2] (equilibration time (d): 6) it was 5.47 ± 3.5%. Besides, the “chemical recovery by SPE of plasma” value in data set [3] (equilibration time (d): 1) is 11.4 ± 2.3%; in data set [3] (equilibration time (d): 3), 14.6 ± 1.5%; in data set [3] (equilibration time (d): 6), 9.71 ± 1.7%.
